The target in assay [1] is T1, recombinant ICL cloned from C. albicans ATCC10231 (Candida albicans, UniProt Q9P8Q7).
T1 construct: made in house
Kind of assay: ICL inhibition assay (glyoxylate phenylhydrazone formation, A324 nm). In kind it is biochemical. As to conditions: for IC50: purified recombinant ICL, n = 3. Here is the method: The preparation of recombinant ICL cloned from C. albicans ATCC10231 was performed as described previously. The inhibitory activities of secoemestrin C (1), dethiosecoemestrin (2), emestrin (3), and emestrin B (4) against purified recombinant ICL were evaluated according to a previously documented procedure. The production of ICL-catalyzed glyoxylate phenylhydrazone from phenylhydrazine and isocitrate was measured using a spectrophotometer at an absorbance wavelength of 324 nm.
The preparation of the recombinant ICL protein from C. albicans ATCC10231 was performed as described in a previous paper. We used the two synthetic primers IC-1 (5′-[…]-3′) and IC-2 (5′-[…] […]-3′) to perform a PCR amplification of ICL. The ICL inhibitory activity of the test compounds were evaluated according to a previously described method. The ICL-catalyzed formation of glyoxylate phenylhydrazone from isocitrate and phenylhydrazine substrates was measured using a spectrophotometer at an absorbance wavelength of 324 nm. The inhibitory activity of the test compound was calculated relative to that of the DMSO control (n = 3). We used 3-nitropropionate as a positive control.

Assay [2] concerns C. albicans ATCC10231. Kind of assay: microbe, parasite or virus in culture. In kind it is cell-based, Candida albicans. From the text:
(§1) The ICL gene was cloned from C. albicans strain ATCC10231 genomic DNA. C. albicans SC5314 (ATCC MYA-2876) (wild type), MRC10 (Δicl) (ICL-deletion mutant), MRC11 (Δicl + ICL) (ICL-complemented mutant), […], ATCC18804, and ATCC11006 were used for the growth assay. The ICL-deletion mutant strains MRC10 and MRC11 were kindly provided by Prof. Michael C. Lorenz (The University of Texas Health Science Center at Houston). Each strain was subcultured in YNB broth (Difco Laboratories, Detroit, MI, USA) supplemented with 2% glucose at 28 °C. For the ICL inhibitor addition, isolated compounds dissolved in DMSO were added to a final solvent concentration of 0.5% in all growth assays.
(§2) The antifungal activity of secoemestrin C (1), dethiosecoemestrin (2), emestrin (3), and emestrin B (4) was evaluated against C. albicans strains (SC5314, ATCC10231, ATCC10259, ATCC11006, and ATCC18804) using a previously documented procedure. The growth of C. albicans was monitored in YNB broth with glucose or potassium acetate as the carbon source. The plates were incubated at 28 °C for 3 days. […] Amphotericin B, an antifungal agent, was applied as a positive control.

For assay [3], the system named is C. albicans SC5314. The assay can be described thus: In vitro growth assay (MIC) in YNB broth. It is filed as cell-based, Candida albicans. The settings on record: 28 °C.
Source text: (§3) Following phagocytosis by macrophages, C. albicans undergoes a metabolic shift from glycolysis to the glyoxylate cycle, enabling cells to utilize C2 carbon sources. Therefore, we hypothesized that the ICL inhibitor reduces nutrient uptake capacity and impedes the survival of C. albicans within macrophages.
as §1, §2

In assay [4] the test system is C. albicans ATCC10259. Kind of assay: In vitro growth assay (MIC) in YNB broth. In kind it is cell-based. The settings on record: Candida albicans, ATCC10259, 72 h, 28 °C.
Source text: as §3, §1, §2

Assay [5] deals with C. albicans ATCC11006. Kind of assay: In vitro growth assay (MIC) in YNB broth. It is filed as cell-based. As to conditions: Candida albicans, ATCC11006, 72 h, 28 °C.
Source text: as §3, §1, §2

Assay [6] deals with C. albicans ATCC18804. The assay can be described thus: In vitro growth assay (MIC) in YNB broth. In kind it is cell-based. The settings on record: Candida albicans, ATCC18804, 72 h, 28 °C.
Source text: as §3, §1, §2

The test system of assay [7] is C. albicans strains (SC5314, ATCC10231, ATCC10259, ATCC11006, and ATCC18804). Kind of assay: In vitro growth assay (MIC), summary over the strain panel. As to conditions: Candida albicans; C. albicans growing on acetate, over five strains. It is filed as cell-based. Here is the method:
as §3, §2

Assay [8] has as its system C. albicans strains SC5314 (wild type), MRC10 (Δicl), and MRC11 (Δicl + ICL). Kind of assay: Growth phenotype analysis on YNB agar plates. In kind it is cell-based, Candida albicans. The settings on record: 2 days, 28 °C. Here is the method: To determine the effects of secoemestrin C (1) on C. albicans growth under C2–assimilating conditions, phenotypic analyses of ICL-deletion mutants were also performed using C. albicans strains SC5314 (wild type), MRC10 (Δicl), and MRC11 (Δicl + ICL). After pre-culture, each strain was streaked onto YNB agar plates supplemented with glucose or potassium acetate with or without 64 μg/mL secoemestrin C (1).
Figure 3 Inhibitory activity of secoemestrin C (1) toward the growth and ICL mRNA expression of C. albicans. (a) C. albicans strains SC5314 (wild-type), MRC10 (Δicl), and MRC11 (Δicl + ICL) were cultured on YNB agar plates containing 2% glucose or 2% potassium acetate as a carbon source with or without 64 μg/mL secoemestrin C (1) for 2 days at 28 °C. […] ICL mRNA expression was analyzed by RT-PCR. Glyceraldehyde-3-phosphate dehydrogenase (GPDH), a housekeeping gene, was measured as a loading control.
Growth phenotype and ICL expression analysis were performed using C. albicans strains SC5314 (wild type), MRC10 (Δicl), and MRC11 (Δicl + ICL) according to a previously described method. […] Semi-quantitative RT-PCR was conducted using ICL-specific primers: 5′-[…]-3′ (forward) and 5′-TAGATTCAGCTTCA GCCATCAAAGC-3′ (reverse). The expression of the housekeeping gene glyceraldehyde-3-phosphate dehydrogenase (GPDH) was measured as a loading control.

Assay [9] deals with ICL mRNA expression in C. albicans. Kind of assay: ICL mRNA expression by semi-quantitative RT-PCR. It is filed as cell-based, Candida albicans. As to conditions: cells grown in 2% acetate with 16, 32, or 64 μg/mL compound; 4 h, 28 °C; SC5314 and MRC11. On the procedure: Figure 3 Inhibitory activity of secoemestrin C (1) toward the growth and ICL mRNA expression of C. albicans. (a) C. albicans strains SC5314 (wild-type), MRC10 (Δicl), and MRC11 (Δicl + ICL) were cultured on YNB agar plates containing 2% glucose or 2% potassium acetate as a carbon source with or without 64 μg/mL secoemestrin C (1) for 2 days at 28 °C. (b) Strains were grown in YNB broth containing 2% glucose, collected by centrifugation, and transferred to YNB containing 2% glucose (Glu), 2% potassium acetate (Ace), or 2% Ace + secoemestrin C (1) (16, 32, or 64 μg/mL) and cultured for 4 h at 28 °C. ICL mRNA expression was analyzed by RT-PCR. Glyceraldehyde-3-phosphate dehydrogenase (GPDH), a housekeeping gene, was measured as a loading control.
We further investigated the effects of secoemestrin C (1) on ICL mRNA expression in C. albicans using a semi-quantitative reverse-transcription polymerase chain reaction (RT-PCR). […] GPDH expression was detected in all treatment conditions.
Growth phenotype and ICL expression analysis were performed using C. albicans strains SC5314 (wild type), MRC10 (Δicl), and MRC11 (Δicl + ICL) according to a previously described method. […] Semi-quantitative RT-PCR was conducted using ICL-specific primers: 5′-[…]-3′ (forward) and 5′-TAGATTCAGCTTCA GCCATCAAAGC-3′ (reverse). […]

Where [10] appears, read: Candida albicans, SC5314, 72 h, YNB with 2% glucose, read-out: MIC.
The mark [11] stands for this setting: Candida albicans, ATCC10231, Table 1: growth of C. albicans ATCC10231.
The mark [12] stands for this setting: Candida albicans, ATCC10231, Table 1: growth of C. albicans ATCC10231, read-out: MIC.
Setting [13] is: Candida albicans, SC5314, 72 h, YNB with 2% potassium acetate, read-out: MIC.
Setting [14] is: Candida albicans, ATCC10231, 72 h, ATCC10231, YNB with 2% glucose, 72 h, 28 °C, read-out: MIC.
The mark [15] stands for this setting: Candida albicans, ATCC10231, 72 h, ATCC10231, YNB with 2% potassium acetate, 72 h, 28 °C, read-out: MIC.
The mark [16] stands for this setting: YNB with 2% glucose, read-out: MIC.
Where [17] appears, read: YNB with 2% potassium acetate, read-out: MIC.

Data on six molecules can be found in paper PMC8224697 (Marine Drugs, 2021).

≈ marks a conversion by molar mass, not a printed value. Entries after “also recorded” stand apart in the source; their conditions may differ. Read-outs that look alike come from different tables or passages of the source.

T1 sequence (Q9P8Q7 whole entry): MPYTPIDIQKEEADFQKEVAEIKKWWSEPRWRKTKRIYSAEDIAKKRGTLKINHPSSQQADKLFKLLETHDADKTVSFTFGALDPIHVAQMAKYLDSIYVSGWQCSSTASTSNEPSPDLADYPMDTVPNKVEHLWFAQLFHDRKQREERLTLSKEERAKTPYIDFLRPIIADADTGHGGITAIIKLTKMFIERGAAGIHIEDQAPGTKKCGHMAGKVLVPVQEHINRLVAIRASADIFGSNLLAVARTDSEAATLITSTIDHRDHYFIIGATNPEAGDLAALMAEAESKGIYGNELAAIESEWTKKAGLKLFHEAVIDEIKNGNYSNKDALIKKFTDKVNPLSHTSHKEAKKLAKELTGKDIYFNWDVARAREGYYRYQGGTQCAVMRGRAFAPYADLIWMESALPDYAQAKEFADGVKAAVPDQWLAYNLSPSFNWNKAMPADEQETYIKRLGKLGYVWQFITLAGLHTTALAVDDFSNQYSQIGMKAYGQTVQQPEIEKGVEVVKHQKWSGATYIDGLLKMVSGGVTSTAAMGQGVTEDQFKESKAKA

What is called IC50 is the midpoint of a concentration-inhibition curve. Take `O=C(O)CC[N+](=O)[O-]` [3-Nitropropionate, 3-nitropropionate, reference compound]: in assay [1], the IC50 came to 21.8 ± 1.38 µM. Besides, the MIC in assay [2] (Table 1: growth of C. albicans ATCC10231) was >128 µg/mL.

Turning to `COc1ccc2cc1Oc1cc(ccc1O)C(O)C13SSC4(C(=O)N1C)C(O)C1=COC=CC(OC2=O)C1N4C3=O` (stereo not drawn) [Emestrin (3), emestrin], the “inhibitory activity toward ICL (in words)” value in assay [1] is reported as “not inhibitors of ICL”; in assay [1] (listed as emestrin (3)), “no inhibitory activity”. Further, in assay [1], the IC50 is > 214 µM. For the same molecule, the MIC in [3] (setting [10]) and in [2] (setting [11]) was > 128 µg/mL throughout.

Regarding `COc1ccc(C(=O)O[C@H]2C=COC=C3C=C4C(=O)N(C)C(=O)C(=O)N4[C@@H]32)cc1Oc1cc(C=O)ccc1O` [Dethiosecoemestrin (2), dethiosecoemestrin], in assay [1], the “inhibitory activity toward ICL (in words)” value is “no inhibitory activity” and the IC50 is > 241 µM. Also, the MIC in assay [3] (setting [10]) is > 128 µg/mL. In assay [2] (setting [12]), the MIC was > 128 µg/mL.

On to `COc1ccc(C(=O)O[C@H]2C=COC=C3[C@@H](O)[C@]45SSSS[C@H](C(=O)N4[C@@H]32)N(C)C5=O)cc1Oc1cc(C=O)ccc1O` [Secoemestrin C (1), secoemestrin C], for which the “reversibility of binding to the enzyme” value in [1] (enzyme activity not recovered by dialysis within 1 h) is on record as “irreversible”. Besides, the ICL inhibition mechanism entry in assay [1] (kinetic analysis, Lineweaver–Burk plot) is recorded as “uncompetitive inhibitor”. In addition, in assay [1], the IC50 worked out at 4.77 ± 0.08 µM. For the same molecule, the MIC in [3] (setting [10]) is > 128 µg/mL; in [3] (setting [13]), 64 µg/mL (≈ 96.6 µM); in assay [3] (YNB with 2% glucose, 72 h), >128 µg/mL; in [2] (setting [14]), > 128 µg/mL; in [2] (setting [15]), 64 µg/mL (≈ 96.6 µM); in assay [2] (setting [12]) it was > 128 µg/mL. For the same molecule, the MIC in assay [4] (YNB with 2% glucose) is > 128 µg/mL; in assay [4] (YNB with 2% potassium acetate) it was 32 µg/mL (≈ 48.3 µM); in assay [5] (YNB with 2% glucose), > 128 µg/mL; in [5] (YNB with 2% potassium acetate) it was 64 µg/mL (≈ 96.6 µM); in assay [6] (YNB with 2% glucose) it was > 128 µg/mL; in assay [6] (YNB with 2% potassium acetate), 64 µg/mL (≈ 96.6 µM). Also, the MIC in [7] lay within 32 to 64 µg/mL (≈ 48.3 to 96.6 µM). The growth phenotype entry in assay [8] (2% glucose plus 64 μg/mL compound, all strains) was “normal phenotypes”; in assay [8] (2% potassium acetate plus 64 μg/mL compound), “failed to grow; also recorded: no growth”. For the same molecule, the “intensity of the PCR band corresponding to the ICL product (ICL mRNA)” value in assay [9] is “decreased”.

As for `COc1ccc2cc1Oc1cc(ccc1O)C(O)C13SSSC4(C(=O)N1C)C(O)C1=COC=CC(OC2=O)C1N4C3=O` (stereo not drawn) [Emestrin B (4), emestrin B], in assay [1], the “inhibitory activity toward ICL (in words)” value is listed as “no inhibitory activity; also recorded: not inhibitors of ICL” and the IC50 was > 203 µM. In [3] (setting [10]), the MIC was > 128 µg/mL. Besides, in assay [2] (setting [11]), the MIC was > 128 µg/mL.

For `C[C@@H]1[C@H](O)[C@@H](C)/C=C/C=C/C=C/C=C/C=C/C=C/C=C/[C@H](O[C@@H]2O[C@H](C)[C@@H](O)[C@H](N)[C@@H]2O)C[C@@H]2O[C@](O)(C[C@@H](O)C[C@@H](O)[C@H](O)CC[C@@H](O)C[C@@H](O)CC(=O)O[C@H]1C)C[C@H](O)[C@H]2C(=O)O` [Amphotericin B, amphotericin B, reference compound], the MIC in [3] (setting [10]) came to 0.5 µg/mL (≈ 0.541 µM); in [3] (setting [13]), 0.5 µg/mL (≈ 0.541 µM); in assay [2] (setting [14]) it was 0.5 µg/mL (≈ 0.541 µM); in [2] (setting [15]), 0.5 µg/mL (≈ 0.541 µM); in assay [2] (setting [12]) it was 0.5 µg/mL (≈ 0.541 µM); in assay [4] (setting [16]), 1 µg/mL (≈ 1.08 µM). Further, the MIC in assay [4] (setting [17]) came to 0.5 µg/mL (≈ 0.541 µM); in assay [5] (setting [16]) it was 0.5 µg/mL (≈ 0.541 µM); in assay [5] (setting [17]), 0.5 µg/mL (≈ 0.541 µM); in assay [6] (setting [16]) it was 1 µg/mL (≈ 1.08 µM); in assay [6] (setting [17]), 1 µg/mL (≈ 1.08 µM).
